Results taken from patent US20230265116A1, “DEGRADATION OF (EGFR) BY CONJUGATION OF EGFR INHIBITORS WITH E3 LIGASE LIGAND AND METHODS OF USE” (BEIGENE, LTD., priority 2020, published 2023).

Columns and labels:
[1] = molecular target: T1, EGFR L858R/T790M/C797S (BaF3-LTC cells) (Homo sapiens, UniProt P00533, C797S/L858R/T790M); experiment: EGFR degradation HTRF assay, BaF3-LTC cells; type: cell-based; conditions: BaF3-LTC cells; for DC50: EGFR degradation, IC50 (DC50) from curve fit, read-out: DC50(nM) BaF3-LTC; for Dmax: maximum percentage of inhibition (degradation), read-out: Dmax (%) BaF3-LTC
T1 construct: expressed in transfected cells; host or cells: BaF3
How it was run: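 EGFR remaining after a 16 h, 37 °C exposure (8 doses, 5-fold steps from 10 uM final, 0.2% DMSO) was quantified by HTRF antibodies in cell lysate. Percent inhibition relative to DMSO control was fitted by four-parameter logistic to give DC50; Dmax denotes maximal degradation.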

[2] = test system: EGFR Del19/T790M/C797S (H1975-clone #28); experiment: EGFR degradation HTRF assay, H1975-clone #28 DTC cells; type: cell-based; conditions: H1975 # 28 DTC cells; for DC50: EGFR degradation, IC50 (DC50) from curve fit, read-out: DC50(nM) H1975 # 28 DTC; for Dmax (%) H1975 # 28 DTC: maximum percentage of inhibition (degradation)
How it was run: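 Compounds (top 10 uM, 5-fold, 8 points, 0.2% DMSO) incubated 16 h at 37 °C on homozygous clones: #23 Del19/C797S, #28 Del19/T790M/C797S, exogenous EGFR only in H1975. HTRF on lysates quantified remaining EGFR relative to DMSO; four-parameter fit gave DC50 and Dmax.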

T1 sequence (P00533 25-1210 T790M/C797S/L858R): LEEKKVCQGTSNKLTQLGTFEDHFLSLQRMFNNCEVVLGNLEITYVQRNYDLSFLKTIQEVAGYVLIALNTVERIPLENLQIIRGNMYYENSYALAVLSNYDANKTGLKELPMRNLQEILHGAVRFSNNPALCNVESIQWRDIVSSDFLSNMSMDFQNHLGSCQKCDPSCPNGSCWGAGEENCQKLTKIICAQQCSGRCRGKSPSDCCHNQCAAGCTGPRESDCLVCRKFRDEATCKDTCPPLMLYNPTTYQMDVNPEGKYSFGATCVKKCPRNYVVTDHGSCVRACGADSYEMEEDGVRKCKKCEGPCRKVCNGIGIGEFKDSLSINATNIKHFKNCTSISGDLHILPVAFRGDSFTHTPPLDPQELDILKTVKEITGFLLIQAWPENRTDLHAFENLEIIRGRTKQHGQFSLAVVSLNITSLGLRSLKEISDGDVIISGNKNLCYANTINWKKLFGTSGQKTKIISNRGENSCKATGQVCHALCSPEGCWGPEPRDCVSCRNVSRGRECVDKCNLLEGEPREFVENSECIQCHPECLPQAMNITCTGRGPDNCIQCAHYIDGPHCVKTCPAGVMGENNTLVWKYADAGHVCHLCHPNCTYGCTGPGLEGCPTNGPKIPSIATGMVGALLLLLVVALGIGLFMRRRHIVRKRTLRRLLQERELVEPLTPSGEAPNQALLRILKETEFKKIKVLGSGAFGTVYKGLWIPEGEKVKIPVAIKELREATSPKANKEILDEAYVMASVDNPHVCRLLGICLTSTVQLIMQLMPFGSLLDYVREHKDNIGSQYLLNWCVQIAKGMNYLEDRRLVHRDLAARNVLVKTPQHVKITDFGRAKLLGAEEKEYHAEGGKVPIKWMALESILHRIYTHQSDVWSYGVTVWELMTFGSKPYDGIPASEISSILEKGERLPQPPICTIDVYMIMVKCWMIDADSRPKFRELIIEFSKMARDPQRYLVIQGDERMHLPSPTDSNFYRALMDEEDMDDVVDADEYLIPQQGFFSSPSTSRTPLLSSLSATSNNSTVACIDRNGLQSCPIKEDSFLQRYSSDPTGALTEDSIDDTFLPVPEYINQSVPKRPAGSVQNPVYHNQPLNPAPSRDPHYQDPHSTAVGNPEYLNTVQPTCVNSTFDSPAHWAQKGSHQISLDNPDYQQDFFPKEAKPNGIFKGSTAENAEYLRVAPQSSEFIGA

Row | DC50 [1] [nM] | Dmax [1] [%] | DC50 [2] [nM] | SMILES | Dmax (%) H1975 # 28 DTC [2] [%]
1 | 3.85 | 94.1 | 0.958 | CCc1cc(Nc2ncc(Br)c(Nc3ccc4cc(C)ncc4c3P(C)(C)=O)n2)c(OC)cc1N1CCC(N2CCN(C(=O)[C@@H]3CCN(c4cc(F)c([C@H]5CCC(=O)NC5=O)c(F)c4)C3)CC2)CC1 [Example 586, (R)-3-(4-((R)-3-(4-(1-(4-((5-bromo-4-((8-(dimethylphosphoryl)-3-methylisoquinolin-7-yl)amino)pyrimidin-2-yl)amino)-2-ethyl-5-methoxyphenyl)piperidin-4-yl)piperazine-1-carbonyl)pyrrolidin-1-yl)-2,6-difluorophenyl)piperidine-2,6-dione] | 84.73
2 | 53.2 | 74.2 | 2.14 | CCOc1cc(N2CCC(N3CCN(CCc4cc(OC)cc5c4oc(=O)n5C4CCC(=O)NC4=O)CC3)CC2)c(CC)cc1Nc1ncc(Br)c(Nc2ccc3nc(CC)ccc3c2P(C)(C)=O)n1 (stereo not drawn) [Example 618, 3-(7-(2-(4-(1-(4-((5-bromo-4-((5-(dimethylphosphoryl)-2-ethylquinolin-6-yl)amino)pyrimidin-2-yl)amino)-5-ethoxy-2-ethylphenyl)piperidin-4-yl)piperazin-1-yl)ethyl)-5-methoxy-2-oxobenzo[d]oxazol-3(2H)-yl)piperidine-2,6-dione] | 74.88
3 | 21.9 | 95.4 | 1.05 | CCOc1cc(N2CCC(N3CCN(CCc4ccc5c(oc(=O)n5C5CCC(=O)NC5=O)c4Cl)CC3)CC2)c(CC)cc1Nc1ncc(Br)c(Nc2ccc3nc(CC)ccc3c2P(C)(C)=O)n1 (stereo not drawn) [Example 624, 3-(6-(2-(4-(1-(4-((5-bromo-4-((5-(dimethylphosphoryl)-2-ethylquinolin-6-yl)amino)pyrimidin-2-yl)amino)-5-ethoxy-2-ethylphenyl)piperidin-4-yl)piperazin-1-yl)ethyl)-7-chloro-2-oxobenzo[d]oxazol-3(2H)-yl)piperidine-2,6-dione] | 73.81
4 | 14.1 | 92.3 | 1.36 | CCOc1cc(N2CCC(N3CCN(C[C@H]4CCN(c5cccc6c5oc(=O)n6C5CCC(=O)NC5=O)C4)CC3)CC2)c(CC)cc1Nc1ncc(Br)c(Nc2ccc3c(=O)n(CC)ncc3c2P(C)(C)=O)n1 (stereo partly drawn) [Example 560, 3-(7-((R)-3-((4-(1-(4-((5-bromo-4-((5-(dimethylphosphoryl)-2-ethyl-1-oxo-1,2-dihydrophthalazin-6-yl)amino)pyrimidin-2-yl)amino)-5-ethoxy-2-ethylphenyl)piperidin-4-yl)piperazin-1-yl)methyl)pyrrolidin-1-yl)-2-oxobenzo[d]oxazol-3(2H)-yl)piperidine-2,6-dione] | 80.68
5 | 6.53 | 87 | 1.05 | CCc1ccc2c(P(C)(C)=O)c(Nc3nc(Nc4cc(CC)c(N5CCC(N6CCN(CCc7cc(C)cc8c7oc(=O)n8C7CCC(=O)NC7=O)CC6)CC5)cc4OC)ncc3Br)ccc2n1 (stereo not drawn) [Example 442, 3-(7-(2-(4-(1-(4-((5-bromo-4-((5-(dimethylphosphoryl)-2-ethylquinolin-6-yl)amino)pyrimidin-2-yl)amino)-2-ethyl-5-methoxyphenyl)piperidin-4-yl)piperazin-1-yl)ethyl)-5-methyl-2-oxobenzo[d]oxazol-3(2H)-yl)piperidine-2,6-dione] | 81.11
6 | 14.6 | 81.4 | 0.894 | CCc1ccc2c(P(C)(C)=O)c(Nc3nc(Nc4cc(CC)c(N5CCC(N6CCN(CCc7cc(F)cc8c7oc(=O)n8C7CCC(=O)NC7=O)CC6)CC5)cc4OC)ncc3Br)ccc2n1 (stereo not drawn) [Example 443, 3-(7-(2-(4-(1-(4-((5-bromo-4-((5-(dimethylphosphoryl)-2-ethylquinolin-6-yl)amino)pyrimidin-2-yl)amino)-2-ethyl-5-methoxyphenyl)piperidin-4-yl)piperazin-1-yl)ethyl)-5-fluoro-2-oxobenzo[d]oxazol-3(2H)-yl)piperidine-2,6-dione] | 82.38
